Measurements reported in the supplement of paper PMC5579334.
± gives the standard deviation of the averaged measurements.

How the values were obtained:
S1507-2 [1] = experiment: drug sensitivity score (DSS, CellTiter-Glo viability, 72 h) (DSS (dimensionless)); higher = more sensitive; extreme values may be limits of the assay
In short: (§1)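 For this screen, 384-well plates were preprinted with each compound at five concentrations in 10-fold steps and seeded with MPNST cell lines or primary human Schwann cells at 750–1000 cells per well. Incubation lasted 72 h at 37 °C, 5% CO2, and CellTiter-Glo ATP luminescence, scaled between vehicle and positive-control wells and averaged over duplicates where available, served as viability. Logistic fits with four parameters were applied. Relative IC50 (censored at the top concentration) and drug sensitivity score derive from these fits, and percent inhibition is at the top concentration.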

S462 [2] = experiment: as above
In short: as §1

[3] = test system: HSC2 (primary human Schwann cells); experiment: as above
In short: as §1

HS-PSS [4] = experiment: as above
In short: as §1

[5] = test system: HSC1 (primary human Schwann cells); experiment: as above
In short: as §1

STS26T [6] = experiment: as above
In short: as §1

ST8814 [7] = experiment: as above
In short: as §1

HS-Sch-2 [8] = experiment: as above
In short: as §1

YST-1 [9] = experiment: as above
In short: as §1

S1507-2 [10] = experiment: drug sensitivity score (DSS, CellTox-Green cytotoxicity, 72 h) (DSS (dimensionless)); higher = more cytotoxic; extreme values may be limits of the assay
In short: (§2)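 MPNST cell lines and primary human Schwann cells were grown for 72 h at 37 °C in 384-well plates containing five 10-fold compound dilutions. CellTox-Green, added before seeding at a final 1:1000 dilution, gave fluorescence from DNA released by disrupted cells, and signals were scaled to vehicle and positive-control wells. Curves were fitted with a four-parameter logistic model. Drug sensitivity score and relative IC50 come from these fits, with IC50 censored at the top concentration.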

[11] = test system: HSC2 (primary human Schwann cells); experiment: as above
In short: as §2

HS-PSS [12] = experiment: as above
In short: as §2

[13] = test system: HSC1 (primary human Schwann cells); experiment: as above
In short: as §2

STS26T [14] = experiment: as above
In short: as §2

ST8814 [15] = experiment: as above
In short: as §2

S1507-2 [16] = experiment: % inhibition of CellTiter-Glo viability at highest tested concentration (72 h), relative to DMSO and benzethonium chloride controls; higher = more inhibition
In short: as §1

S462 [17] = experiment: as above
In short: as §1

[18] = test system: HSC2 (primary human Schwann cells); experiment: as above
In short: as §1

HS-PSS [19] = experiment: as above
In short: as §1

[20] = test system: HSC1 (primary human Schwann cells); experiment: as above
In short: as §1

STS26T [21] = experiment: as above
In short: as §1

ST8814 [22] = experiment: as above
In short: as §1

HS-Sch-2 [23] = experiment: as above
In short: as §1

YST-1 [24] = experiment: as above
In short: as §1

| SMILES | drug sensitivity score (S1507-2 [1]) | drug sensitivity score (S462 [2]) | drug sensitivity score [3] | drug sensitivity score (HS-PSS [4]) | drug sensitivity score [5] | drug sensitivity score (STS26T [6]) | drug sensitivity score (ST8814 [7]) | drug sensitivity score (HS-Sch-2 [8]) | drug sensitivity score (YST-1 [9]) | drug sensitivity score (S1507-2 [10]) | drug sensitivity score [11] | drug sensitivity score (HS-PSS [12]) | drug sensitivity score [13] | drug sensitivity score (STS26T [14]) | drug sensitivity score (ST8814 [15]) | % inhibition (S1507-2 [16]) [%] | % inhibition (S462 [17]) [%] | % inhibition [18] [%] | % inhibition (HS-PSS [19]) [%] | % inhibition [20] [%] | % inhibition (STS26T [21]) [%] | % inhibition (ST8814 [22]) [%] | % inhibition (HS-Sch-2 [23]) [%] | % inhibition (YST-1 [24]) [%] |
| --- | --- | --- | --- | --- | --- | --- | --- | --- | --- | --- | --- | --- | --- | --- | --- | --- | --- | --- | --- | --- | --- | --- | --- | --- |
| CCc1cncnc1N1CCN(Cc2nc3ccc(C(F)(F)F)cc3[nH]2)CC1 (max concentration tested 10000 nM) | 0.267 ± 0.38 | 0.305 ± 0.43 | 0.531 | 4.22 | 0.31 | 1.12 | 0.171 | 2.07 | 0.69 | 0 | 0 | 0 | 0 | 0 | 0 | 9.77 ± 2.6 | 13.2 ± 8.4 | 21.4 | 64 | 13.9 | 19.7 | 13.6 | 47.6 | 22.3 |
| CCn1c(-c2nonc2N)nc2cnc(Oc3cccc(NC(=O)c4ccc(OCCN5CCOCC5)cc4)c3)cc21 (max concentration tested 10000 nM) | 3.11 ± 0.81 | 3.9 ± 0.086 | 18.1 | 4.2 | 16.9 | 5.65 | 2.57 | 6.03 | 6.84 | 2.06 ± 2.4 | 0.268 | 0 | 1.62 | 5.6 | 0 | 36.1 ± 2.2 | 43.6 ± 3.2 | 71.3 | 47.1 | 70.6 | 50.7 | 34.9 | 58 | 49.8 |
| CCn1c(C(=O)N(C2CC2)C2CC2)cc2c3c(ncn3C)c(Nc3cc(C)n(C)n3)nc21 (max concentration tested 10000 nM) | 0.094 ± 0.13 | 0 | 0 | 0 | 0 | 0 | 0 | 0.17 | 2.34 | 0 | 0 | 0 | 0 | 0 | 0 | 3.94 ± 19 | 0.708 ± 7.6 | -0.298 | 8.84 | 9.48 | 2.67 | 7.29 | 16 | 29.6 |
| CN(c1ccccc1CNc1nc(Nc2ccc3c(c2)CC(=O)N3)ncc1C(F)(F)F)S(C)(=O)=O (max concentration tested 10000 nM) | 7.1 ± 0.82 | 11.5 ± 0.24 | 13.8 | 5.97 | 14.5 | 9.12 | 7.26 | 6.95 | 10.6 | 2.52 ± 0.6 | 1.33 | 0.56 | 1.33 | 6.59 | 3.58 | 71.3 ± 1.1 | 100.3 ± 0.78 | 84 | 83.9 | 78.8 | 95.3 | 71.9 | 101 | 100 |
| Cc1c(Cn2c(C)nc3c(C(=O)O)cc(N4CCOCC4)cc32)cccc1C(F)(F)F (max concentration tested 10000 nM) | 3.59 ± 0.27 | 0 | 0 | 1.06 | 0 | 0.72 | 0.197 | 0 | 0 | 0 | 0 | 0 | 0 | 0 | 0 | 33.6 ± 5.3 | 3.26 ± 4.3 | 5.2 | 19.4 | 4.46 | 17.6 | 11.8 | 8.95 | 4.11 |
| Nc1nccc(-c2c(-c3ccc(F)cc3)ncn2C2CCCCC2)n1 (max concentration tested 10000 nM) | 0 | 0 | 0 | 0.55 | 0 | 0 | 0 | 0.99 | 3.26 | 0 | 0 | 0 | 0 | 0 | 0 | 2.64 ± 7.6 | -4.31 ± 12 | -0.333 | 21.5 | 9.97 | 1.02 | 5.9 | 29.1 | 33.7 |
| Nc1ncnc2c1c(COc1cccc(Cl)c1)nn2C1CCOCC1 (max concentration tested 10000 nM) | 0.0549 ± 0.078 | 0 | 0 | 0 | 0.203 | 0.587 | 0 | 0.64 | 0 | 0.494 ± 0.64 | 0 | 0 | 0 | 0 | 0 | 9.42 ± 7.2 | -3.41 ± 5.9 | -5.42 | 7.3 | 11.5 | 18.3 | 5.84 | 12.5 | 9.51 |
| O=C(Nc1ccc2[nH]nc(-c3ccncc3)c2c1)[C@@H]1CCN(CC(=O)N2CCN(c3ccc(-c4ncccn4)cc3)CC2)C1 (max concentration tested 10000 nM) | 10.7 ± 1.2 | 20.4 ± 0.4 | 10.6 | 5.75 | 10.4 | 4.44 | 16.7 | 8.78 | 1.98 | 9.36 ± 3.5 | 0.0074 | 0 | 0 | 1.59 | 10.8 | 77.5 ± 2.5 | 97 ± 2.1 | 51.2 | 45.2 | 61.3 | 40.4 | 91.2 | 66.4 | 31.8 |
| O=C(O)c1ccc(-c2c[nH]c3ncc(-c4ccccc4)cc23)cc1C1CCCC1 (max concentration tested 10000 nM) | 0 | 0 | 0.756 | 0.42 | 0 | 0 | 0 | 1.47 | 0 | 0.00895 ± 0.013 | 0 | 0 | 0 | 0 | 0 | -2.03 ± 9.5 | 4.19 ± 1.2 | 18.7 | 19.2 | 8.07 | -4.89 | 7.81 | 31 | 9.07 |
| COc1cc2c(cc1O)CC[C@@H]1[C@@H]2CC[C@]2(C)[C@@H](O)CC[C@@H]12 [2-methoxyestradiol] (max concentration tested 10000 nM) | 6.89 ± 0.4 | 12.8 ± 0.78 | 7.04 | 1.11 | 7.26 | 12.1 | 6.11 | 10.8 | 6.88 | 5.59 ± 1 | 3.98 | 0 | 0.832 | 11.6 | 5.07 | 82 ± 3.8 | 98.15 ± 0.87 | 66.6 | 26.6 | 66.2 | 99.8 | 91.9 | 84.4 | 75.8 |
| CC/C(=C(\c1ccc(O)cc1)c1ccc(OCCN(C)C)cc1)c1ccccc1 [4-hydroxytamoxifen] (max concentration tested 10000 nM) | 5.41 ± 1.5 | 3.82 ± 1.3 | 5.65 | 6.38 | 5.78 | 3.45 | 5.33 | 7.34 | 2.94 | 0.592 ± 0.84 | 7.53 | 3.7 | 1.81 | 1.86 | 4.88 | 55.9 ± 8.7 | 46.1 ± 9.7 | 82.5 | 88.4 | 72.5 | 53 | 75.7 | 93.4 | 32.7 |
| Nc1ncnc2c1nc(N)n2[C@@H]1O[C@H](CO)[C@@H](O)[C@H]1O [8-amino-adenosine] (max concentration tested 50000 nM) | 21.3 ± 0.37 | 20.2 ± 0.77 | 15.6 | 17.9 | 18.1 | 19.9 | 19.6 | 19.3 | 22.8 | 12.1 ± 6.4 | 4.74 | 3.6 | 4.02 | 16.9 | 14.7 | 99.405 ± 0.063 | 99.7 ± 0.63 | 96.7 | 101 | 98 | 100 | 98.4 | 102 | 102 |
| Nc1ncnc2c1nc(Cl)n2[C@@H]1O[C@H](CO)[C@@H](O)[C@H]1O [8-chloro-adenosine] (max concentration tested 50000 nM) | 12.4 ± 2.1 | 14.21 ± 0.085 | 9.83 | 5.54 | 9.38 | 12.3 | 9.48 | 11.1 | 12.9 | 1.46 ± 1.7 | 0 | 0 | 0 | 6.31 | 0.449 | 74 ± 0.56 | 82.1 ± 4.6 | 73.7 | 55.6 | 73.8 | 86.8 | 54.5 | 80 | 88.6 |
| COc1cc(O)c2c(c1)/C=C/C[C@H](O)[C@H](O)C(=O)/C=C\C[C@H](C)OC2=O [(5Z)-7-Oxozeaenol] (max concentration tested 10000 nM) | 3.4 ± 0.83 | 6.71 ± 1.1 | 7.92 | 1.02 | 6.52 | 6.93 | 7.1 | 2.24 | 1.67 | 2.79 ± 3 | 1.01 | 0 | 0.659 | 2.39 | 0.979 | 51.8 ± 16 | 74.1 ± 6.8 | 76.9 | 29.8 | 73.1 | 68.6 | 70.6 | 39.8 | 26.6 |
